Two compounds from ChEMBL document CHEMBL1250448, “Inhibitor hijacking of Akt activation” (Nat Chem Biol, 2009) can be followed below.

Assay [1] has as its target Serine/threonine-protein kinase 26 (Homo sapiens) (UniProt Q9P289). The experiment in a line: Inhibition of MST4 at 1 uM in presence of 100 uM ATP by Select Screen kinase assay relative to untreated control.
In assay [2] the target is Ribosomal protein S6 kinase beta-1 (Homo sapiens, UniProt P23443). The experiment in a line: Inhibition of S6K1.
Assay [3] deals with RAC-alpha serine/threonine-protein kinase (Homo sapiens), P31749 [M227G]. Briefly: Induction of membrane localized myristoylated AKT1 M227G mutant Thr308 hyperphosphorylation expressed in HEK293T cells at 2.5 uM after 30 mins by immunoblotting. Format: cell-based. To be noted: HEK-293T.
The target of assay [4] is RAC-alpha serine/threonine-protein kinase (Homo sapiens, UniProt P31749). The experiment in a line: Induction of flag-tagged wild type AKT1 Thr308 hyperphosphorylation expressed in HEK293 cells coexpressing HA-tagged AKT1 M227G after 30 mins by immunoblotting. On the technique in general: In western blotting, separated proteins are transferred to a membrane and probed.
The test system of assay [5] is RAC-alpha serine/threonine-protein kinase (Homo sapiens), P31749 [M227G]. Briefly: Induction of AKT1 M227G Ser473 hyperphosphorylation expressed in HEK293 cells at 2.5 uM after 30 mins pretreated with allosteric AKT inhibitor Akti-1,2 10 mins before compound addition by immunoblotting.
The subject of assay [6] is HEK-293T. The experiment in a line: Induction myristoylated AKT2 M225G mutant Thr308 hyperphosphorylation expressed in HEK293T cells at 2.5 uM after 30 mins pretreated with pan-PI3K inhibitor PIK90 for 10 mins before compound addition by immunoblotting. Format: cell-based.
For assay [7], the system named is MCF7. The experiment in a line: Induction of myristoylated AKT2 M225G mutant Thr308 hyperphosphorylation expressed in MCF7 cells at 2.5 uM after 30 mins by immunoblotting. Format: cell-based.
The subject of assay [8] is RAC-alpha serine/threonine-protein kinase (Homo sapiens), P31749 [M227G]. Briefly: Induction of myristoylated AKT1 M227G mutant Thr308 hyperphosphorylation expressed in HEK293T cells at 2.5 uM after 30 mins pretreated with mTOR kinase inhibitor PP242 for 10 mins before compound addition by immunoblotting. Format: cell-based. The note with it: HEK-293T.
Assay [9] relates to RAC-alpha serine/threonine-protein kinase (Homo sapiens), P31749 [M227G,R25C]. The experiment in a line: Induction of myristoylated AKT1 M227G and R25C mutant Thr308 hyperphosphorylation expressed in HEK293T cells at 2.5 uM after 30 mins by immunoblotting. The note with it: HEK-293T. It counts as cell-based.
The test system of assay [10] is RAC-alpha serine/threonine-protein kinase (Homo sapiens), P31749 [M227G]. The experiment in a line: Induction of myristoylated AKT1 M227G Thr308 hyperphosphorylation expressed in MCF7 cells at 2.5 uM after 30 mins by immunoblotting. It counts as cell-based.
In assay [11] the test system is HEK-293T. Briefly: Induction of nonmyristoylated AKT2 M225G and kinase dead D289A mutant Thr308 hyperphosphorylation expressed in HEK293T cells at 2.5 uM after 30 mins by immunoblotting. Format: cell-based.
Assay [12] has as its system RAC-alpha serine/threonine-protein kinase (Homo sapiens), P31749 [M227G]. The experiment in a line: Induction of myristoylated AKT1 M227G mutant Ser473 hyperphosphorylation expressed in HEK293 cells after 30 mins by immunoblotting. The note with it: HEK-293.
The subject of assay [13] is MCF7. The experiment in a line: Induction of myristoylated AKT2 M225G and kinase dead D289A mutant Thr308 hyperphosphorylation expressed in MCF7 cells at 2.5 uM after 30 mins by immunoblotting. Format: cell-based.
Assay [14] relates to RAC-alpha serine/threonine-protein kinase (Homo sapiens), P31749 [M227G]. Briefly: Induction of myristoylated AKT1 M227G Thr308 hyperphosphorylation expressed in PC3 cells at 2.5 uM after 30 mins by immunoblotting. Format: cell-based. The note with it: PC-3.
Assay [15] has as its system RAC-alpha serine/threonine-protein kinase (Homo sapiens), P31749 [M227G,D292A]. The experiment in a line: Induction of myristoylated AKT1 M227G and kinase dead D292A mutant Ser473 hyperphosphorylation expressed in MCF7 cells at 2.5 uM after 30 mins by immunoblotting. It counts as cell-based.
For assay [16], the system named is RAC-alpha serine/threonine-protein kinase (Homo sapiens), P31749 [M227G]. The experiment in a line: Induction of flag tagged AKT1 M227G Thr308 hyperphosphorylation expressed in HEK293 cells at 2.5 uM after 30 mins by immunoblotting. It counts as cell-based.
Assay [17] concerns HEK-293T. Briefly: Induction of myristoylated AKT3 M229G mutant Ser473 hyperphosphorylation expressed in HEK293T cells at 2.5 uM after 30 mins pretreated with pan-PI3K inhibitor PIK90 for 10 mins before compound addition by immunoblotting. It counts as cell-based.
Assay [18] relates to RAC-alpha serine/threonine-protein kinase (Homo sapiens), P31749 [M227G,D292A]. Briefly: Induction of nonmyristoylated AKT1 M227G and kinase dead D292A mutant Thr308 hyperphosphorylation expressed in HEK293T cells at 2.5 uM after 30 mins by immunoblotting. The note with it: HEK-293T. It counts as cell-based.
Assay [19] deals with RAC-alpha serine/threonine-protein kinase (Homo sapiens), P31749 [M227G]. Briefly: Induction of myristoylated AKT1 M227G mutant Ser473 hyperphosphorylation expressed in HEK293T cells at 2.5 uM after 30 mins pretreated with pan-PI3K inhibitor PIK90 for 10 mins before compound addition by immunoblotting. Format: cell-based. The note with it: HEK-293T.
The test system is the same in assay [20]. The experiment in a line: Induction of myristoylated AKT1 M227G mutant Thr308 hyperphosphorylation expressed in HEK293 cells at 2.5 uM after 30 mins by immunoblotting. To be noted: HEK-293.
The test system is the same in assay [21]. Briefly: Induction of myristoylated AKT1 M227G Thr308 hyperphosphorylation expressed in MiaPaCa2 cells at 2.5 uM after 30 mins by immunoblotting. Format: cell-based.
For assay [22], the system named is HEK-293T. Briefly: Induction of myristoylated AKT3 M229G mutant Thr308 hyperphosphorylation expressed in HEK293T cells at 2.5 uM after 30 mins pretreated with mTOR kinase inhibitor PP242 for 10 mins before compound addition by immunoblotting. Format: cell-based.
Assay [23] deals with HEK-293T. Briefly: Induction of myristoylated AKT3 M229G mutant Ser473 hyperphosphorylation expressed in HEK293T cells at 2.5 uM after 30 mins pretreated with mTOR kinase inhibitor PP242 for 10 mins before compound addition by immunoblotting. It counts as cell-based.
The subject of assay [24] is HEK-293T. The experiment in a line: Induction myristoylated AKT2 M225G mutant Thr308 hyperphosphorylation expressed in HEK293T cells at 2.5 uM after 30 mins pretreated with PDK1 inhibitor BX-795 for 10 mins before compound addition by immunoblotting. It counts as cell-based.
In assay [25] the test system is RAC-alpha serine/threonine-protein kinase (Homo sapiens), P31749 [M227G]. The experiment in a line: Induction of myristoylated AKT1 M227G Ser473 hyperphosphorylation expressed in PC3 cells at 2.5 uM after 30 mins by immunoblotting. Format: cell-based. The note with it: PC-3.
Assay [26] concerns HEK-293T. The experiment in a line: Induction myristoylated AKT2 M225G mutant Ser473 hyperphosphorylation expressed in HEK293T cells at 2.5 uM after 30 mins by immunoblotting. Format: cell-based.
For assay [27], the system named is HEK-293T. The experiment in a line: Induction of myristoylated AKT3 M229G mutant Ser473 hyperphosphorylation expressed in HEK293T cells at 2.5 uM after 30 mins pretreated with PDK1 inhibitor BX-795 for 10 mins before compound addition by immunoblotting. Format: cell-based.
Assay [28] concerns RAC-alpha serine/threonine-protein kinase (Homo sapiens), P31749 [M227G]. Briefly: Induction of myristoylated AKT1 M227G mutant Thr308 hyperphosphorylation expressed in HEK293 cells after 30 mins by immunoblotting. To be noted: HEK-293.
Assay [29] deals with HEK-293T. The experiment in a line: Induction of myristoylated AKT3 M229G mutant Thr308 hyperphosphorylation expressed in HEK293T cells at 2.5 uM after 30 mins pretreated with pan-PI3K inhibitor PIK90 for 10 mins before compound addition by immunoblotting. It counts as cell-based.

By inhibition is commonly meant the change of the read-out against control, counted positive when it falls. For orientation: IC50 means the concentration that inhibits the measured activity by half. High values mean lower potency, low ones higher potency.

Active and inactive are the calls of the source. The rule behind the calls is not given here.

Chain of RAC-alpha serine/threonine-protein kinase (Homo sapiens), P31749 [M227G] (P31749 whole entry M227G): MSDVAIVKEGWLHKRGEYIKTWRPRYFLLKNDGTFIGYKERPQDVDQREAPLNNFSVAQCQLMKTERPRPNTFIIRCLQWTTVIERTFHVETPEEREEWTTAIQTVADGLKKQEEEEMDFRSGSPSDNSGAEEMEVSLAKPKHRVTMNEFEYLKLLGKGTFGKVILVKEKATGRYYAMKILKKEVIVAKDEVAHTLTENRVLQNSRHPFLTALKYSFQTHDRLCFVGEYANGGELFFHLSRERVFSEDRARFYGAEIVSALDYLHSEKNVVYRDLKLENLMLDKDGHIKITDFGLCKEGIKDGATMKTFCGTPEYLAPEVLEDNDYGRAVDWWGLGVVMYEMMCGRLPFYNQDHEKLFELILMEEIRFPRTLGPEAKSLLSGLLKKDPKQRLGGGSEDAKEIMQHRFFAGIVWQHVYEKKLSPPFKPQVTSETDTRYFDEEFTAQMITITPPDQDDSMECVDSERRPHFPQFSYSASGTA
Chain of RAC-alpha serine/threonine-protein kinase (Homo sapiens), P31749 [M227G,D292A] (P31749 whole entry M227G/D292A): as the sequence (P31749 whole entry M227G) above, with D292A counted along it
Chain of Ribosomal protein S6 kinase beta-1 (P23443 whole entry): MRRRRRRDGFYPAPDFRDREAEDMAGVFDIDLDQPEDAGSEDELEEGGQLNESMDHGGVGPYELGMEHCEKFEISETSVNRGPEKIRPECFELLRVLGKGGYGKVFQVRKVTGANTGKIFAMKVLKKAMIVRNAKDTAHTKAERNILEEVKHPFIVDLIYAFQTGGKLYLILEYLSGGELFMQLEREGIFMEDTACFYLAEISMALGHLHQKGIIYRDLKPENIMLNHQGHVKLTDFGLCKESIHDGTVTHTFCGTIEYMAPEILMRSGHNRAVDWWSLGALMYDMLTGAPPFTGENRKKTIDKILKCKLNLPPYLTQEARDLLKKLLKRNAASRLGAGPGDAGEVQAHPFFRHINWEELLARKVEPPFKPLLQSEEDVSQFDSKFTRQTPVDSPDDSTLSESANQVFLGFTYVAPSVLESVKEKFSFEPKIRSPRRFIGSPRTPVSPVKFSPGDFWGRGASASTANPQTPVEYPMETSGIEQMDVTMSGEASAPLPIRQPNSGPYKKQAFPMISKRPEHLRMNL
Chain of RAC-alpha serine/threonine-protein kinase (Homo sapiens), P31749 [M227G,R25C] (P31749 whole entry R25C/M227G): as the sequence (P31749 whole entry M227G) above, with R25C counted along it
Chain of Serine/threonine-protein kinase 26 (Homo sapiens) (Q9P289 2-416 limits assumed): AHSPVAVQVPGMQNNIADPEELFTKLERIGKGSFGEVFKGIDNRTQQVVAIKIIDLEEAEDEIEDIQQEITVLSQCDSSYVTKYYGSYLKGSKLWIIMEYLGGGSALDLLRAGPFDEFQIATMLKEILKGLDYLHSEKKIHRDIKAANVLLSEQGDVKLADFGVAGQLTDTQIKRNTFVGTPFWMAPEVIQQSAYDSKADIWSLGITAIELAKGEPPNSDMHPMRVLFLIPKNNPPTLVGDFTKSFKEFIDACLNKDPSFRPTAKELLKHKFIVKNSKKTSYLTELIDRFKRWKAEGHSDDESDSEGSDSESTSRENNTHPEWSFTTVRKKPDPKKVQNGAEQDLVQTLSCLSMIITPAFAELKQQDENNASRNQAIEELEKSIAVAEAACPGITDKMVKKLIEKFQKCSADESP
Chain of RAC-alpha serine/threonine-protein kinase (P31749 whole entry): as the sequence (P31749 whole entry M227G) above, with G227M counted along it

On to `COc1ccccc1N1CCN(c2ncnc3[nH]nc(Br)c23)CC1`, for which the inhibition in [1] was determined as 11%. Further, the IC50 in [2] was determined as 9.1 nM.

For `CCCc1cc(-c2cncc(OC[C@@H](N)Cc3c[nH]c4ccccc34)c2)cc2c(C)n[nH]c12`, the outcome in [3], in [7], in assay [8], in [10], in assay [11] and in [13] was Active. For the same compound, the outcome in assay [14], in assay [15], in assay [16], in assay [18], in assay [20] and in assay [21] was Active. In addition, the outcome in assay [22], in assay [25] and in assay [26] was Active. For the same compound, the outcome in assay [4], in [5], in assay [6], in assay [9], in assay [17] and in assay [19] was inactive. Besides, the outcome in assay [23], in [24], in assay [27] and in assay [29] was inactive. In addition, the Activity result in [12] and in [28] was “Dose-dependent effect” in each case.
